Experimental data: patent publication US20130005824A1, “TREATMENT OF ISCHEMIC TISSUE” (The Research Foundation of State University of New York, priority 2009, published 2013)
Like-named read-outs stand apart in the source and are kept apart here.

Key:
[1] = test system: hamster cheek pouch arterioles (arcade arteriole and terminal arteriolar feed); experiment: Microvascular response (arteriolar diameter change) to locally applied curcumin in hamster cheek pouch tissue, intravital microscopy; format: in vivo; conditions: for EC50: Mesocricetus auratus
rat comb burn model = experiment: Burn injury progression in the rat hot comb burn model, intravenous curcumin; format: in vivo; conditions: for interspaces that progressed to full thickness necrosis, histologic analysis: day 7, control 67%
Experimental: In this study, we determined the effects of curcumin on burn progression in the rat hot comb model. […] Pure curcumin (99.9% as determined by HPLC and mass spectroscopy analysis) produced under GMP was acquired from ChromaDex, Inc for the studies described below.
Animals were randomized to receive one of six intravenous doses of curcumin (0.3, 1.0, 3.0, 10, 30, or 100 μg/kg) in 1 ml of phosphate buffered saline (PBS) or PBS alone (buffer control) administered via the tail vein at 1 and 24 hours after injury. […] Full-thickness biopsies from the interspaces 7 days after injury were evaluated for evidence of necrosis after H&E staining. The percentages of interspaces that progressed to necrosis were compared with chi-squared (χ2) tests. At the seventh day, the number of interspaces that processed to full thickness necrosis was 67% for control, 58, 53, 37, 63, 53, and 26% for 0.1, 0.3, 1, 3, 10, 30 and 100 μg/kg curcumin respectively as determined by histologic analysis. Similar results were obtained for the macroscopic evaluation at day 2, 5, and 7. […] The same experiment was repeated a second time and gave essentially the same results.

[2] = curcumin alone, similar for arcade and feed

**Q.** What does the source list for `COc1cc(/C=C/C(=O)CC(=O)/C=C/c2ccc(O)c(OC)c2)ccc1O` [curcumin, (E,E)-1,7-bis (4-hydroxy-3-methoxyphenyl)-1,6-heptadiene-3,5,-dione]?
**A.** curcumin-induced dilation remaining with LNNA ([1]; 10^−4M LNNA, curcumin 10^−10 though 10^−7 M): significant curcumin-induced dilation remained; curcumin-induced dilation remaining with LNNA ([1]; 10^−5M LNNA, 10^−12 to 10^−10 M curcumin): a significant dilation remained; curcumin-induced dilation with LNNA ([1]; 10^−5M LNNA, terminal feed arterioles, similar pattern in arcade): attenuated; EC50 ([1]; curcumin alone, micropipette 60 s, similar for arcade and feed, read-out: logEC50 for dilation (converted)): 0.316 nM; EC50 ([1]; curcumin alone, similar for arcade and feed, read-out: logEC50 for constriction (converted)): 3.98 nM; EC50 ([1]; phentolamine 10^−5 M, constrictor component removed, read-out: logEC50, dilation to curcumin with phentolamine (converted)): 0.1 ± 0.004 nM; EC50 ([1]; propranolol 10^−5 M, dilation component removed, read-out: logEC50, constriction to curcumin with propranolol (converted)): 0.01 nM; effect of simultaneous PD142893 on the curcumin response ([1]; PD142893 (endothelin antagonist) 10^−5 M): no effect; effect of PD142893 on maximal dilation and constriction to curcumin ([1]; PD142893 (endothelin antagonist), no effect on baseline diameters): diminished the maximal dilation and enhanced the maximal constriction; curcumin-induced dilation with cAMP blockade ([1]; Rp-8-br-cAMPS, curcumin 10^−6M, arcade, but not terminal arterioles): significantly suppressed; curcumin-induced constriction with cAMP blockade ([1]; Rp-8-br-cAMPS, curcumin 10^−8M, arcade, but not terminal arterioles): attenuated; curcumin-induced dilation with cGMP blockade ([1]; Rp-8-br-cGMPS, terminal and arcade arterioles): prevented all curcumin-induced dilation; local response after microvascular preconditioning ([1]; after deliberate microvascular preconditioning): predominantly constriction; effect of simultaneous atropine on the curcumin response ([1]; atropine (muscarinic antagonist) 10^−7 M): no effect; effect of atropine on maximal dilation and constriction to curcumin ([1]; atropine (muscarinic antagonist), no effect on baseline diameters): diminished the maximal dilation and enhanced the maximal constriction; constrictor and dilatory (cGMP and cAMP mediated) responses before and after repeated exposure (potential cytotoxicity) ([1]; baseline diameter recovery and tone after repeated 60 second exposures): unchanged; terminal arteriole diameter, 60 second time-course ([1]; curcumin 10^−6M continuously applied): initial vasodilation at 20 seconds was followed by vasoconstriction that peaked at 60 seconds; terminal arteriole diameter, 60 second time-course ([1]; curcumin 10^−10M continuously applied): sustained dilation; response to curcumin with propranolol and phentolamine together ([1]; curcumin 10^−10 M, 10^−8M and 10^−6M, terminal and arcade arterioles): blocked all response; peak constriction [1, 2]: −15±5%; peak dilation [1, 2]: +40±8%; peak dilation, terminal versus arcade arterioles ([1]; dose-response 10^−13M to 10^−3M, 20 s and 60 s): significantly greater for terminal arterioles than for arcade arterioles; concentration inducing vasodilation after versus before preconditioning ([1]; in vivo studies to date, after preconditioning): lower concentrations; effect on arteriolar diameter during induced endothelial dysfunction ([1]; nitro-arginine added to the tissue bath): the dilation component was potentiated and constriction was attenuated; peak dilation to curcumin with phentolamine, arcade ([1]; phentolamine 10^−5 M, arcade arteriole): +34±9; peak dilation to curcumin with phentolamine, feed ([1]; phentolamine 10^−5 M, terminal feed arteriole): +65 +10; peak constriction to curcumin with propranolol ([1]; propranolol 10^−5 M): −30 ±7%; constriction response to curcumin with phentolamine ([1]; terminal arteriole, phentolamine 10^−5M): abolished; dilation response to curcumin with propranolol ([1]; terminal arteriole, propranolol 10^−5M): abolished; progression to necrosis compared to control (rat comb burn model; 3 μg/kg and 100 μg/kg i.v., p<0.01, macroscopic evaluation and histologic analysis): significantly less progression to necrosis; interspaces that progressed to full thickness necrosis, histologic analysis (rat comb burn model; fifth value listed (30 μg/kg by method)): 53%; interspaces that progressed to full thickness necrosis, histologic analysis (rat comb burn model; fourth value listed (10 μg/kg by method)): 63%; interspaces that progressed to full thickness necrosis, histologic analysis (rat comb burn model; i.v. at 1 and 24 h after injury, first value listed (0.3 μg/kg by method, 0.1 μg/kg by the sentence)): 58%; interspaces that progressed to full thickness necrosis, histologic analysis (rat comb burn model; last value listed (100 μg/kg)): 26%; interspaces that progressed to full thickness necrosis, histologic analysis (rat comb burn model; second value listed (1 μg/kg by method)): 53%; interspaces that progressed to full thickness necrosis, histologic analysis (rat comb burn model; third value listed (3 μg/kg by method)): 37%
